Results taken from publication PMC2947747 (Chembiochem : a European journal of chemical biology, 2008).

Key:
Assay in all cases: reverse glycosyl transfer
Assay type in all cases: biochemical
Conditions in all cases: 1 mM GDP, 1 mM MgCl2, pH 8.0, 30 °C; reverse reaction
NysDI = NysDI (Streptomyces noursei, UniProt Q9L4W6)
AmphDI = AmphDI (Streptomyces nodosus, UniProt Q93NW9)
NysDI-T2 = NysDI-T2 (Streptomyces noursei, UniProt Q9L4W6)

C[C@@H]1[C@H](O)[C@@H](C)/C=C/C=C/C=C/C=C/C=C/C=C/C=C/[C@H](O[C@@H]2O[C@H](C)[C@@H](O)[C@H](N)[C@@H]2O)C[C@@H]2O[C@](O)(C[C@@H](O)C[C@@H](O)[C@H](O)CC[C@@H](O)C[C@@H](O)CC(=O)O[C@H]1C)C[C@H](O)[C@H]2C(=O)O [compound 1, amphotericin B]
reverse glycosyl transfer (deglycosylation), RP-HPLC (NysDI): reaction reversibility assessed in the presence of AmphDI, NysDI and NysDI-T2 | reverse glycosyl transfer (deglycosylation), RP-HPLC (AmphDI): reaction reversibility assessed in the presence of AmphDI, NysDI and NysDI-T2 | reverse glycosyl transfer (deglycosylation), RP-HPLC (NysDI-T2): reaction reversibility assessed in the presence of AmphDI, NysDI and NysDI-T2
